# Like-named read-outs stand apart in the source and are kept apart here.
# Molecular target: T1, Chk1 (Homo sapiens, UniProt O14757)
# T1 construct: purchased Upstate Biotechnology
# T1 sequence (O14757 1-476): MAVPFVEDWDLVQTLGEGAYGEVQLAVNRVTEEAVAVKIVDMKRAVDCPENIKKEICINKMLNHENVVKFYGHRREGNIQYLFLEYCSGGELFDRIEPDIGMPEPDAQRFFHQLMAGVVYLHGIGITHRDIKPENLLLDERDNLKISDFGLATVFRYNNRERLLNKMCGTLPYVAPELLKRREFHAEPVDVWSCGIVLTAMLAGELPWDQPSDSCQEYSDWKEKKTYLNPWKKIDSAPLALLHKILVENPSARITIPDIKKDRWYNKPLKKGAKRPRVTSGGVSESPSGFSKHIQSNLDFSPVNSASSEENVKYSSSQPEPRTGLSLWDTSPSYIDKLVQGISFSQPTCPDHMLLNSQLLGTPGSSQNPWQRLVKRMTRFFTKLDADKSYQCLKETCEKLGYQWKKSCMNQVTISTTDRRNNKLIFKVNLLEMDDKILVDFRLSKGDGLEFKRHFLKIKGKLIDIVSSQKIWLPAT
# Assay: Chk1 kinase assay: incorporation of γ-33P ATP into immobilized myelin basic protein
# Type: biochemical
# Settings: read-out: Chk1 IC50
# Procedure, shortened: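 Plates coated with MBP, then kinase reactions in Hepes pH 7.6 buffer with 10 mM MgCl2 and 1% DMSO were started by adding unlabeled plus γ-33P ATP (10 μM for Chk1 at 10 nM enzyme; 30 μM for Chk2 at 20 nM enzyme). After 1 h at room temperature, plates were washed and counted.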
# [1] = Table 11, Chk1 only, class symbols A-D
IC50,"IC50 (Table 11, Chk1 only)",Structure (SMILES),further results
–,–,"Cc1ccccc1CC(=O)Nc1cccc(-c2cnc(N)c(C(=O)N[C@H]3CCCNC3)n2)c1 [Example 975, 3-amino-6-(3-{[(2-methylphenyl)acetyl]amino}phenyl)-N-[(3S)-piperidin-3-yl]pyrazine-2-carboxamide]",IC50 [1]: < 50 nM
–,–,"Cc1ccc(Cl)cc1CNC(=O)c1cccc(-c2cnc(N)c(C(=O)N[C@H]3CCCNC3)n2)c1 [Example 993, 3-amino-6-[3-({[(5-chloro-2-methylphenyl)methyl]amino}carbonyl)phenyl]-N-[(3S)-piperidin-3-yl]pyrazine-2-carboxamide]",IC50 [1]: < 50 nM
50 to 1000 nM,–,"CNC(=O)c1nc(-c2cccc(C(=O)N[C@H]3CCC[C@@H]3OCc3ccccc3)c2)cnc1N [Example 164, 3-amino-N-methyl-6-{3-[({(1S,2S)-2-[(phenylmethyl)oxy]cyclopentyl}amino)carbonyl]phenyl}pyrazine-2-carboxamide]",–
50 to 1000 nM,–,"CNC(=O)c1nc(-c2cccc(N)c2)cnc1N [Example 51, 3-amino-6-(3-aminophenyl)-N-methylpyrazine-2-carboxamide]",–
–,≥ 10000 nM,"CC(C)(C)OC(=O)N1CC[C@@H](CNC(=O)c2nc(-c3cccc(C(=O)N[C@@H]4c5ccccc5C[C@@H]4O)c3)cnc2N)C1 [Example 769, 1,1-dimethylethyl (3S)-3-{[({3-amino-6-[3-({[(1R,2S)-2-hydroxy-2,3-dihydro-1H-inden-1-yl]amino}carbonyl)phenyl]pyrazin-2-yl}carbonyl)amino]methyl}pyrrolidine-1-carboxylate]",–
–,1000 to 10000 nM,"CNC(=O)c1nc(-c2cc(C(=O)O)cc(C(=O)OC)c2)cnc1N [Example 789, 3-{5-amino-6-[(methylamino)carbonyl]pyrazin-2-yl}-5-[(methyloxy)carbonyl]benzoic acid]",–
50 to 1000 nM,–,"CNC(=O)c1nc(-c2cccc(NC(=O)c3ccc(C)cc3)c2)cnc1N [Example 119, 3-amino-N-methyl-6-(3-{[(4-methylphenyl)carbonyl]amino}phenyl)pyrazine-2-carboxamide]",–
–,–,"CN(C)c1ccc(NC(=O)NCc2cccc(-c3cnc(N)c(C(=O)N[C@H]4CCCNC4)n3)c2)cc1 [Example 966, 3-amino-6-(3-{[({[4-(dimethylamino)phenyl]amino}carbonyl)amino]methyl}phenyl)-N-[(3S)-piperidin-3-yl]pyrazine-2-carboxamide]",IC50 [1]: < 50 nM
50 to 1000 nM,–,"CNC(=O)c1nc(-c2cccc(C(=O)NCc3ccc(Oc4ccccc4)cc3)c2)cnc1N [Example 184, 3-amino-N-methyl-6-{3-[({[4-(phenyloxy)phenyl]methyl}amino)carbonyl]phenyl}pyrazine-2-carboxamide]",–
–,50 to 1000 nM,"Nc1cc(-c2n[nH]c(-c3nc(-c4cccc(CO)c4)cnc3N)n2)ccn1 [Example 798, (3-{5-amino-6-[3-(2-aminopyridin-4-yl)-1H-1,2,4-triazol-5-yl]pyrazin-2-yl}phenyl)methanol]",–
–,50 to 1000 nM,"CNC(=O)c1nc(-c2cccc(CNC3CCc4cc(Br)ccc43)c2)cnc1N (stereo not shown) [Example 461, 3-amino-6-(3-{[(5-bromo-2,3-dihydro-1H-inden-1-yl)amino]methyl}phenyl)-N-methylpyrazine-2-carboxamide]",–
–,–,"Nc1ncc(-c2cccc(CNC(=O)Nc3ccc(F)cc3)c2)nc1C(=O)N[C@H]1CCCNC1 [Example 958, 3-amino-6-{3-[({[(4-fluorophenyl)amino]carbonyl}amino)methyl]phenyl}-N-[(3S)-piperidin-3-yl]pyrazine-2-carboxamide]",IC50 [1]: < 50 nM
–,1000 to 10000 nM,"COCc1nnc(-c2nc(-c3cccc(CN[C@H]4CCc5ccccc54)c3)cnc2N)[nH]1 [Example 595, 5-(3-{[(1S)-2,3-dihydro-1H-inden-1-ylamino]methyl}phenyl)-3-{5-[(methyloxy)methyl]-4H-1,2,4-triazol-3-yl}pyrazin-2-amine]",–
–,–,"Cc1ccc(C)c(CNC(=O)c2cccc(-c3cnc(N)c(C(=O)N[C@H]4CCCNC4)n3)c2)c1 [Example 1036, 3-amino-6-[3-({[(2,5-dimethylphenyl)methyl]amino}carbonyl)phenyl]-N-[(3S)-piperidin-3-yl]pyrazine-2-carboxamide]",IC50 [1]: < 50 nM
< 50 nM,–,"CNC(=O)c1nc(-c2cccc(C(=O)NCc3ccc(-c4cccs4)cc3)c2)cnc1N [Example 377, 3-amino-N-methyl-6-{3-[({[4-(2-thienyl)phenyl]methyl}amino)carbonyl]phenyl}pyrazine-2-carboxamide]",–
50 to 1000 nM,–,"CNC(=O)c1nc(-c2cccc(CNCc3ccc(-c4ccccc4)cc3)c2)cnc1N [Example 382, 3-amino-6-(3-{[(biphenyl-4-ylmethyl)amino]methyl}phenyl)-N-methylpyrazine-2-carboxamide]",–

IC50,"IC50 (Table 11, Chk1 only)",Structure (SMILES),further results
–,1000 to 10000 nM,"CNNC(=N)c1nc(-c2cccc(C(=O)N[C@H]3CCc4ccccc43)c2)cnc1N [Example 719, 3-{5-amino-6-[imino(2-methylhydrazino)methyl]pyrazin-2-yl}-N-[(1S)-2,3-dihydro-1H-inden-1-yl)benzamide]",–
–,< 50 nM,"CNC(=O)c1nc(-c2cccc(CNC3CCc4cc(-c5cccs5)ccc43)c2)cnc1N (stereo not shown) [Example 478, 3-amino-N-methyl-6-[3-({[5-(2-thienyl)-2,3-dihydro-1H-inden-1-yl]amino}methyl)phenyl]pyrazine-2-carboxamide]",–
50 to 1000 nM,–,"CNC(=O)c1nc(-c2cccc(C(=O)NCc3ccc(OC)c(OC)c3)c2)cnc1N [Example 371, 3-amino-6-{3-[({[3,4-bis(methyloxy)phenyl]methyl}amino)carbonyl]phenyl}-N-methylpyrazine-2-carboxamide]",–
50 to 1000 nM,–,"CNC(=O)c1nc(-c2cccc(NC(=O)c3cccc(Oc4ccccc4)c3)c2)cnc1N [Example 156, 3-amino-N-methyl-6-[3-({[3-(phenyloxy)phenyl]carbonyl}amino)phenyl]pyrazine-2-carboxamide]",–
–,< 50 nM,"CNC(=O)c1nc(-c2cccc(CNC3CCc4c(O)cccc43)c2)cnc1N (stereo not shown) [Example 515, 3-amino-6-(3-{[(4-hydroxy-2,3-dihydro-1H-inden-1-yl)amino]methyl}phenyl)-N-methylpyrazine-2-carboxamide]",–
< 50 nM,–,"CNC(=O)c1nc(-c2cccc(C(=O)NCc3ccc(I)cc3)c2)cnc1N [Example 302, 3-amino-6-[3-({[(4-iodophenyl)methyl]amino}carbonyl)phenyl]-N-methylpyrazine-2-carboxamide]",–
–,1000 to 10000 nM,"CC(C)(C)OC(=O)N1CC[C@H](NC(=O)c2nc(-c3cccc(C(=O)NCc4c(F)cccc4Cl)c3)cnc2N)C1 [Example 740, 1,1-dimethylethyl (3S)-3-[({3-amino-6-[3-({[(2-chloro-6-fluorophenyl)methyl]amino}carbonyl)phenyl]pyrazin-2-yl}carbonyl)amino]pyrrolidine-1-carboxylate]",–
–,50 to 1000 nM,"CNC(=O)c1nc(-c2cc(F)cc(C(=O)N[C@H]3CCc4ccccc43)c2)cnc1N [Example 788, 3-amino-6-(3-{[(1S)-2,3-dihydro-1H-inden-1-ylamino]carbonyl}-5-fluorophenyl)-N-methylpyrazine-2-carboxamide]",–
–,1000 to 10000 nM,"Nc1ncc(-c2cccc(C(=O)NCc3ccccc3)c2)nc1/C=N/O [Example 681, 3-{5-amino-6-[(E)-(hydroxyimino)methyl]pyrazin-2-yl}-N-(phenylmethyl)benzamide]",–
–,50 to 1000 nM,"C/C(=N\N(C)C)c1nc(-c2cccc(C(=O)NCc3ccccc3)c2)cnc1N [Example 629, 3-{5-amino-6-[(1E)-N,N-dimethylethanehydrazonoyl]pyrazin-2-yl}-N-(phenylmethyl)benzamide]",–
–,≥ 10000 nM,"Nc1ncc(-c2cccc(C(=O)NCc3ccccc3)c2)nc1/C=N/Nc1ccccn1 [Example 678, 3-{5-amino-6-[(E)-(pyridin-2-ylhydrazono)methyl]pyrazin-2-yl}-N-(phenylmethyl)benzamide]",–
1000 to 10000 nM,–,"CNC(=O)c1nc(-c2cccc(OCCN3CCC(O)C3)c2)cnc1N (stereo not shown) [Example 177, 3-amino-6-(3-{[2-(3-hydroxypyrrolidin-1-yl)ethyl]oxy}phenyl)-N-methylpyrazine-2-carboxamide]",–
–,< 50 nM,"Nc1ncc(-c2cccc(C(=O)N[C@@H]3c4ccccc4C[C@@H]3O)c2)nc1C(=O)NC[C@@H]1CCNC1 [Example 780, 3-amino-6-[3-({[(1R,2S)-2-hydroxy-2,3-dihydro-1H-inden-1-yl]amino}carbonyl)phenyl]-N-[(3R)-pyrrolidin-3-ylmethyl]pyrazine-2-carboxamide]",–
50 to 1000 nM,–,"CNC(=O)c1nc(-c2cccc(CNC(=O)c3cc(C(F)(F)F)ccc3Cl)c2)cnc1N [Example 333, 3-amino-6-{3-[({[2-chloro-5-(trifluoromethyl)phenyl]carbonyl}amino)methyl]phenyl}-N-methylpyrazine-2-carboxamide]",–
–,–,"COc1ccc(CNC(=O)c2cccc(-c3cnc(N)c(C(=O)N[C@H]4CCCNC4)n3)c2)cc1OC [Example 1042, 3-amino-6-{3-[({[3,4-bis(methyloxy)phenyl]methyl}amino)carbonyl]phenyl}-N-[(3S)-piperidin-3-yl]pyrazine-2-carboxamide]",IC50 [1]: < 50 nM
